Results from PubChem BioAssay (NCI).
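Test compounds were applied to cells in 96-well plates for 48 hours at 5 doses. TGI: concentration producing complete growth inhibition.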

Key:
Experiment in all cases: NCI-60 cell line screen, 48 h
[1] = test system: SK-MEL-28 melanoma
[2] = test system: UACC-257 melanoma
[3] = test system: OVCAR-8 ovarian
[4] = test system: OVCAR-3 ovarian
[5] = test system: NCI-H226 lung
[6] = test system: T-47D breast
[7] = test system: NCI-H23 lung
[8] = test system: EKVX NSCLC
[9] = test system: HOP-62 NSCLC
[10] = test system: HOP-92 NSCLC
[11] = test system: SF-268 CNS
[12] = test system: 786-0 renal
[13] = test system: LOX IMVI melanoma
[14] = test system: HCT-15 colon
[15] = test system: A498 renal
[16] = test system: SNB-19 CNS
[17] = test system: KM12 colon
[18] = test system: COLO 205 colon
[19] = test system: HCC-2998 colon
[20] = test system: OVCAR-5 ovarian
[21] = test system: OVCAR-4 ovarian
[22] = test system: CCRF-CEM leukemia
[23] = test system: SF-295 CNS
[24] = test system: NCI-H522 lung
[25] = test system: SK-OV-3 ovarian
[26] = test system: A549 NSCLC
[27] = test system: SR leukemia
[28] = test system: MALME-3M melanoma
[29] = test system: K-562 leukemia
[30] = test system: RPMI-8226 leukemia
[31] = test system: M14 melanoma
[32] = test system: TK-10 renal
[33] = test system: RXF 393 renal
[34] = test system: BT-549 breast
[35] = test system: UO-31 renal
[36] = test system: IGROV1 ovarian
[37] = test system: NCI-H460 lung
[38] = test system: SNB-75 CNS
[39] = test system: CAKI-1 renal
[40] = test system: MCF7 breast
[41] = test system: U251 CNS
[42] = test system: HL-60(TB) leukemia
[43] = test system: ACHN renal
[44] = test system: HS 578T breast
[45] = test system: DU-145 prostate
[46] = test system: SW-620 colon
[47] = test system: SF-539 CNS
[48] = test system: MDA-N
[49] = test system: MOLT-4 leukemia
[50] = test system: UACC-62 melanoma
[51] = test system: HT29 colon
[52] = test system: PC-3 prostate
[53] = test system: SN12C renal
[54] = test system: NCI/ADR-RES ovarian
[55] = test system: HCT-116 colon
[56] = test system: SK-MEL-2 melanoma
[57] = test system: MDA-MB-231 breast
[58] = test system: SK-MEL-5 melanoma
[59] = test system: MDA-MB-435

Compound: N=N/C(=C\c1c(O)[nH]c2ccccc12)c1ccccc1
- TGI [1]: > 100 µM
- TGI [2]: > 100 µM
- TGI [3]: > 57.5 µM
- TGI [4]: 44.2 µM
- TGI [5]: 99.1 µM
- TGI [6]: > 100 µM
- TGI [7]: > 87.8 µM
- TGI [8]: > 92 µM
- TGI [9]: 99.8 µM
- TGI [10]: > 100 µM
- TGI [11]: > 100 µM
- TGI [12]: > 77 µM
- TGI [13]: > 70.2 µM
- TGI [14]: > 66.4 µM
- TGI [15]: 91.6 µM
- TGI [16]: > 92.9 µM
- TGI [17]: > 89.2 µM
- TGI [18]: 54.6 µM
- TGI [19]: 63 µM
- TGI [20]: > 100 µM
- TGI [21]: > 100 µM
- TGI [22]: 25.2 µM
- TGI [23]: 66 µM
- TGI [24]: 86.7 µM
- TGI [25]: > 90.2 µM
- TGI [26]: > 100 µM
- TGI [27]: 97.5 µM
- TGI [28]: > 78 µM
- TGI [29]: > 100 µM
- TGI [30]: > 100 µM
- TGI [31]: > 65.9 µM
- TGI [32]: > 100 µM
- TGI [33]: 62.6 µM
- TGI [34]: 62.3 µM
- TGI [35]: > 100 µM
- TGI [36]: > 100 µM
- TGI [37]: > 100 µM
- TGI [38]: 63.8 µM
- TGI [39]: > 100 µM
- TGI [40]: > 100 µM
- TGI [41]: > 83.9 µM
- TGI [42]: 17.5 µM
- TGI [43]: > 100 µM
- TGI [44]: 44.4 µM
- TGI [45]: > 100 µM
- TGI [46]: > 100 µM
- TGI [47]: 37.9 µM
- TGI [48]: 13.7 µM
- TGI [49]: > 100 µM
- TGI [50]: > 100 µM
- TGI [51]: 44.9 µM
- TGI [52]: > 70.7 µM
- TGI [53]: > 94.7 µM
- TGI [54]: > 57.2 µM
- TGI [55]: > 59.3 µM
- TGI [56]: > 100 µM
- TGI [57]: > 76.5 µM
- TGI [58]: > 100 µM
- TGI [59]: 20.3 µM

Compound: O=C(O)c1cc(=O)c2c(OCC(O)COc3cccc4oc(C(=O)O)cc(=O)c34)cccc2o1
- TGI [1]: > 100 µM
- TGI [2]: > 100 µM
- TGI [3]: > 100 µM
- TGI [4]: > 100 µM
- TGI [5]: > 100 µM
- TGI [6]: > 100 µM
- TGI [7]: > 100 µM
- TGI [8]: > 100 µM
- TGI [9]: > 100 µM
- TGI [10]: > 93.8 µM
- TGI [11]: > 100 µM
- TGI [12]: > 100 µM
- TGI [13]: > 100 µM
- TGI [14]: > 100 µM
- TGI [15]: > 83.6 µM
- TGI [16]: > 100 µM
- TGI [17]: > 100 µM
- TGI [18]: > 100 µM
- TGI [19]: > 100 µM
- TGI [20]: > 100 µM
- TGI [21]: > 100 µM
- TGI [22]: > 100 µM
- TGI [23]: > 100 µM
- TGI [24]: > 75.2 µM
- TGI [25]: > 100 µM
- TGI [26]: > 100 µM
- TGI [27]: > 100 µM
- TGI [28]: > 100 µM
- TGI [29]: > 100 µM
- TGI [30]: > 100 µM
- TGI [31]: > 100 µM
- TGI [32]: > 100 µM
- TGI [33]: > 100 µM
- TGI [34]: > 100 µM
- TGI [35]: > 100 µM
- TGI [36]: > 94.9 µM
- TGI [37]: > 100 µM
- TGI [38]: > 100 µM
- TGI [39]: > 100 µM
- TGI [40]: > 100 µM
- TGI [41]: > 100 µM
- TGI [42]: > 100 µM
- TGI [43]: > 100 µM
- TGI [44]: > 100 µM
- TGI [45]: > 100 µM
- TGI [46]: > 100 µM
- TGI [47]: > 100 µM
- TGI [48]: > 100 µM
- TGI [49]: > 100 µM
- TGI [50]: > 100 µM
- TGI [51]: > 100 µM
- TGI [52]: > 100 µM
- TGI [53]: > 100 µM
- TGI [54]: > 100 µM
- TGI [55]: > 100 µM
- TGI [56]: > 79.2 µM
- TGI [57]: > 100 µM
- TGI [58]: 99.2 µM
- TGI [59]: > 100 µM
